In patent US20030187000A1, “Inhibitors for de novo-RNA polymerases and methods of identifying targets for same” (priority 2002, published 2003) one finds binding affinity data, which are given here for one compound.

This experiment has as its target T1, NS5B (Hepatitis C virus genotype 1b, UniProt P26663).
T1 construct: the RNA dependent RNA polymerase from hepatitis C virus (NS5B)
Nature of the experiment: Binding studies of thiomethylsulfonate derivatives. The conditions noted are these: among heterocyclic/aromatic-substituted thiomethylsulfonate derivatives of FIG. 1. The source says: Cys366 was modified by both compounds (i.e., BMTS and MMTS) and is located in the proximity of the primer-binding site (i.e., initiation nucleotide binding site) of the enzyme. […] Based on these observations, it should especially be recognized that specific modification of Cys366 near the primer-binding site may advantageously be employed for rational inhibitor design. Furthermore, it is contemplated that second-generation compounds may even operate without involvement of the Cys366 (i.e., without formation of a covalent bond) by targeting only the small pocket of the NS5B. To explore the binding affinity and specificity to the cysteines near the active sites of NS5B, a exemplary heterocyclic/aromatic-substituted thiomethylsulfonate derivatives were designed and synthesized as depicted in FIG. 1. […] This compound was also soaked into the polymerase NS5B.

T1 sequence (P26663 2420-3010): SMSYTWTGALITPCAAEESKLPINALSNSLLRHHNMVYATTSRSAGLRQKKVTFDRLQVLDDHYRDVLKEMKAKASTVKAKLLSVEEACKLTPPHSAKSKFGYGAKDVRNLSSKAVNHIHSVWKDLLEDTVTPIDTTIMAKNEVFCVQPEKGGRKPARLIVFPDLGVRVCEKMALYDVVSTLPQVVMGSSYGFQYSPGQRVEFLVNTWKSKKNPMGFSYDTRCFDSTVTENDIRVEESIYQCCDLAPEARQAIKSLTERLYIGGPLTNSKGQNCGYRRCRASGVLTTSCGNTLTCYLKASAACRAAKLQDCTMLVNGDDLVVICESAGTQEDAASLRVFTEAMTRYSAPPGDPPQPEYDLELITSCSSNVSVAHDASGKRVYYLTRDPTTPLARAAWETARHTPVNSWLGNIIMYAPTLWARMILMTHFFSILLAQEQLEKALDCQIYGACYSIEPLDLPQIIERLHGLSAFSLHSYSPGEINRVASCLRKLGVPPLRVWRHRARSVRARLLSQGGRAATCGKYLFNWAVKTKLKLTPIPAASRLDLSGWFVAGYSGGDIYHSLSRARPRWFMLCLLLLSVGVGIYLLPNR

Turning to `CS(=O)(=O)SCc1ccc(Cl)s1` [(5-chlorothiophen-2-yl)methylthiomethylsulfonate], the binding affinity entry is given as “highest binding affinity”.
